From patent publication US20110053949A1, “4-[3-(ARYLOXY)BENZYLIDENE]-3-METHYL PIPERIDINE ARYL CARBOXAMIDE COMPOUNDS USEFUL AS FAAH INHIBITORS” (PFIZER INC., priority 2008, published 2011)

Target: T1, Human FAAH (Homo sapiens, UniProt O00519)
T1 construct: made in house
T1 sequence (O00519 1-579): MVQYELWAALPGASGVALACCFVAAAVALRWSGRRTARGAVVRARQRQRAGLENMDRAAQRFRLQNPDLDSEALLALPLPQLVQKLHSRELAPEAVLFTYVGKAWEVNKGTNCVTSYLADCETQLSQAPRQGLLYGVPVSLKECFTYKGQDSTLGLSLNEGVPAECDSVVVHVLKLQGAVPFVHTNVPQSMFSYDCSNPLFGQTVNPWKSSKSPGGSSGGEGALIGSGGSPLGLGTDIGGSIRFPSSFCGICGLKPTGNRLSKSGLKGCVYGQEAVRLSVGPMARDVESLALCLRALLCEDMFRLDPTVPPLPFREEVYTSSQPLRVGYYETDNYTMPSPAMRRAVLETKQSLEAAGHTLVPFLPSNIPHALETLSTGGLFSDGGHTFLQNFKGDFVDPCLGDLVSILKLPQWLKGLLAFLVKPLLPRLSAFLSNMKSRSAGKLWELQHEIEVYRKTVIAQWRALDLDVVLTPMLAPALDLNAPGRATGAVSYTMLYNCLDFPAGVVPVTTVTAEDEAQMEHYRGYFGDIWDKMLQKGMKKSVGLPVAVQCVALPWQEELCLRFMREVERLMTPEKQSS
Assay: FAAH enzyme assay (glutamate dehydrogenase coupled, oleamide substrate), irreversible inhibition kinetics
Format: biochemical
Details: human FAAH, 30° C., pH 7.4
Experimental: A FAAH enzyme assay may be carried out as described in WO2006/085196 in 384-well clear polystyrene plates in a total volume of 50 μl per well. All percents are by volume. To each well was placed the reaction mixture (40 μl) containing 1-4 nM FAAH, 50 mM NaPi, pH 7.4, 3 mM α-ketoglutarate, 0.15 mM NADH, 7.5 U/ml glutamate dehydrogenase, 2 mM ADP, 1 mM EDTA, and 0.1% Triton X-100 (The concentration shown for each component is the final concentration in the assay). To this mixture was added 5 μl of a compound of Examples 1 to 20 at various concentrations prepared in 50% DMSO (or 5 μl 50% DMSO for controls). This was immediately followed by the addition of 5 μl oleamide (500 μM) dissolved in 75% EtOH/25% DMSO and the reaction mixture is mixed for 1.5 min. The final concentrations of DMSO and EtOH in the assay were each 7.5%. The reactions was then incubated at 30° C. and the absorbance at 340 nm was collected over a period of 90 min with readings taken in 30-second intervals using SpectraMax Plus^384 Microplate Spectrophotometer (Molecular Devices, Sunnyvale, Calif.). Human FAAH used in the assay was prepared as described in the patent application WO 2006/067613. The purity of the enzyme used was greater than 98% based on an analysis by SDS-polyacrylamide gel electrophoresis followed by Coomassie Blue staining.
Initial velocity data (V) is obtained from the slopes of the initial progressive curves. They are plotted as a function of substrate concentration and fit to the Michaelis-Menten equation (1) using Prism (GraphPad Software, Inc., San Diego, Calif.) software to obtain Km and Vmax values.
To obtain potencies of irreversible inhibitors, progressive curves consistent with first order inhibition kinetics (two-step irreversible inhibition mechanism) are fit to equation (2) by nonlinear least squares regressions to determine kobs values at each inhibitor concentration, where [P]t is the absorbance at time t, V0 is a constant related to the steady state rate of the uninhibited reaction, and kobs is the first order rate constant for enzyme inactivation. The inhibitor dissociation constant (Ki) and the first order rate
(2) constant of enzyme inactivation at infinite inhibitor concentration (kinact) are then obtained by fitting the kobs vs. [I] curves to equation (3).

Row | hFAAH Kinact/Ki [M⁻¹ s⁻¹] | Molecule
1 | 71.4 | CC1CN(C(=O)Nc2cccnc2)CC/C1=C\c1cccc(Oc2ccc(C(F)(F)F)cn2)c1 (single isomer, unassigned) [Example 4, (4E)-3-methyl-N-pyridin-3-yl-4-(3-{[5-(trifluoromethyl)pyridin-2-yl]oxy}benzylidene)piperidine-1-carboxamide]
2 | 4890 | CC1CN(C(=O)Nc2cccnc2)CC/C1=C\c1cccc(Oc2ccc(C(F)(F)F)cn2)c1 (single isomer, unassigned) [Example 3, (4E)-3-methyl-N-pyridin-3-yl-4-(3-{[5-(trifluoromethyl)pyridin-2-yl]oxy}benzylidene)piperidine-1-carboxamide]

More lines, now with the values behind:

Row | Molecule | hFAAH Kinact/Ki [M⁻¹ s⁻¹]
3 | CC1CN(C(=O)Nc2cccnn2)CC/C1=C\c1cccc(Oc2ccc(C(F)(F)F)cn2)c1 (single isomer, unassigned) [Example 1, (4E)-3-methyl-N-pyridazin-3-yl-4-(3-{[5-(trifluoromethyl)pyridin-2-yl]oxy}benzylidene)piperidine-1-carboxamide] | 4590
4 | (4E)-N-(6-methoxypyridazin-3-yl)-3-methyl-4-(3-{[5-(trifluoromethyl)pyridin-2-yl]oxy}benzylidene)piperidine-1-carboxamide [Example 12] | 2500
5 | CC1CN(C(=O)Nc2cccnc2)CC/C1=C\c1cccc(Oc2ncc(C(F)(F)F)cn2)c1 (single isomer, unassigned) [Example 16, (4E)-3-methyl-N-pyridin-3-yl-4-(3-{[5-(trifluoromethyl)pyrimidin-2-yl]oxy}benzylidene)piperidine-1-carboxamide] | 6930
6 | CC1CN(C(=O)Nc2cccnc2)CC/C1=C\c1cccc(Oc2ncc(C(F)(F)F)cn2)c1 (single isomer, unassigned) [Example 17, (4E)-3-methyl-N-pyridin-3-yl-4-(3-{[5-(trifluoromethyl)pyrimidin-2-yl]oxy}benzylidene)piperidine-1-carboxamide] | <15.5
7 | (4E)-N-1,2-benzisoxazol-3-yl-3-methyl-4-(3-{[5-(trifluoromethyl)pyridin-2-yl]oxy}benzylidene)piperidine-1-carboxamide [Example 13] | 733
8 | CC1CN(C(=O)Nc2cccnn2)CC/C1=C\c1cccc(Oc2ccc(C(F)(F)F)cn2)c1 (single isomer, unassigned) [Example 2, (4E)-3-methyl-N-pyridazin-3-yl-4-(3-{[5-(trifluoromethyl)pyridin-2-yl]oxy}benzylidene)piperidine-1-carboxamide] | 254

Same assay, conditions: pH 7.4, human FAAH, 30° C., read-out: hFAAH Kinact/Ki

Row | kinact/KI [M⁻¹ s⁻¹] | Molecule
9 | 1290 | Cc1cncc(NC(=O)N2CC/C(=C\c3cccc(Oc4ccc(C(F)(F)F)cn4)c3)C(C)C2)c1 (single isomer, unassigned) [Example 7, (4E)-3-methyl-N-(5-methylpyridin-3-yl)-4-(3-{[5-(trifluoromethyl)pyridin-2-yl]oxy}benzylidene)piperidine-1-carboxamide]
10 | 1420 | CC1CN(C(=O)Nc2cnc3[nH]ccc3c2)CC/C1=C\c1cccc(Oc2ccc(C(F)(F)F)cn2)c1 (single isomer, unassigned) [Example 6, (4E)-3-methyl-N-1H-pyrrolo[2,3-b]pyridin-5-yl-4-(3-{[5-(trifluoromethyl)pyridin-2-yl]oxy}benzylidene)piperidine-1-carboxamide]
11 | 2460 | CC1CN(C(=O)Nc2ccc(C#N)nc2)CC/C1=C\c1cccc(Oc2ccc(C(F)(F)F)cn2)c1 (single isomer, unassigned) [Example 8, (4E)-N-(6-cyanopyridin-3-yl)-3-methyl-4-(3-{[5-(trifluoromethyl)pyridin-2-yl]oxy}benzylidene)piperidine-1-carboxamide]
12 | 2850 | COc1ccc(NC(=O)N2CC/C(=C\c3cccc(Oc4ccc(C(F)(F)F)cn4)c3)C(C)C2)cn1 (single isomer, unassigned) [Example 5, (4E)-N-(6-methoxypyridin-3-yl)-3-methyl-4-(3-{[5-(trifluoromethyl)pyridin-2-yl]oxy}benzylidene)piperidine-1-carboxamide]

The next lines start with the molecule.

Row | Molecule | kinact/KI [M⁻¹ s⁻¹]
13 | CC1CN(C(=O)Nc2cccnc2)CC/C1=C\c1cccc(Oc2ccc(Cl)cn2)c1 (racemic) [Example 15, (4E)-4-{3-[(5-chloropyridin-2-yl)oxy]benzylidene}-3-methyl-N-pyridin-3-ylpiperidine-1-carboxamide] | 4170
14 | COc1cncc(NC(=O)N2CC/C(=C\c3cccc(Oc4ccc(C(F)(F)F)cn4)c3)C(C)C2)n1 (single isomer, unassigned) [Example 11, (4E)-N-(6-methoxypyrazin-2-yl)-3-methyl-4-(3-{[5-(trifluoromethyl)pyridin-2-yl]oxy}benzylidene)piperidine-1-carboxamide] | 1880
15 | Cc1cnc(NC(=O)N2CC/C(=C\c3cccc(Oc4ccc(C(F)(F)F)cn4)c3)C(C)C2)cn1 (single isomer, unassigned) [Example 10, (4E)-3-methyl-N-(5-methylpyrazin-2-yl)-4-(3-{[5-(trifluoromethyl)pyridin-2-yl]oxy}benzylidene)piperidine-1-carboxamide] | 3390
16 | COc1cnc(NC(=O)N2CC/C(=C\c3cccc(Oc4ccc(C(F)(F)F)cn4)c3)C(C)C2)cn1 (single isomer, unassigned) [Example 9, (4E)-N-(5-methoxypyrazin-2-yl)-3-methyl-4-(3-{[5-(trifluoromethyl)pyridin-2-yl]oxy}benzylidene)piperidine-1-carboxamide] | 2390
17 | CC1CN(C(=O)Nc2cccnc2)CC/C1=C\c1cccc(Oc2ccc(Br)cn2)c1 (racemic) [Example 14, (4E)-4-{3-[(5-bromopyridin-2-yl)oxy]benzylidene}-3-methyl-N-pyridin-3-ylpiperidine-1-carboxamide] | 747

Target: T2, rFAAH (Rattus norvegicus, UniProt P97612)
T2 sequence (P97612 1-579): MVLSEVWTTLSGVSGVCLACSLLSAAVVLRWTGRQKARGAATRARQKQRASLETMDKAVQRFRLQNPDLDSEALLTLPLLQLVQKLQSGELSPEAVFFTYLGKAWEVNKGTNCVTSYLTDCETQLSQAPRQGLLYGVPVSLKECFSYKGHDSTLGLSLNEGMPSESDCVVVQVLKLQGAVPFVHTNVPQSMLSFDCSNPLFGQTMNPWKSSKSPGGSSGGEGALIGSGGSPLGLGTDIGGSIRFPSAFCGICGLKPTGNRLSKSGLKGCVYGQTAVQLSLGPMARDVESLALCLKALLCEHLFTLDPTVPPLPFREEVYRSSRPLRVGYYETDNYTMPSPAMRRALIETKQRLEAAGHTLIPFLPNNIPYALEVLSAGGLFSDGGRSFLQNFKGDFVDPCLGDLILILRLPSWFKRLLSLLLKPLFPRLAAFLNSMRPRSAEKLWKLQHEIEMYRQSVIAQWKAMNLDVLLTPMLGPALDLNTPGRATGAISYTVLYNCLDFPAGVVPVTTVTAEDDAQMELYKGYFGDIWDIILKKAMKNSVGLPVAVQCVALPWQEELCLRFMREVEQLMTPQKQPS
Assay: FAAH_KINACTR rFAAH kobs/I
Format: biochemical
Details: further data table, substances given by IUPAC name only

Row | Molecule | FAAH_KINACTR:rFAAH:kobs/I
18 | CC1CN(C(=O)Nc2cccnn2)CC/C1=C\c1cccc(Oc2ccc(C(F)(F)F)cn2)c1 (stereo not drawn) [(4E)-3-methyl-N-pyridazin-3-yl-4-(3-{[5-(trifluoromethyl)pyridin-2-yl]oxy}benzylidene)piperidine-1-carboxamide] | 3730
